In BindingDB's records for doi:10.1016/0960-894X(96)00231-4 (1996):

What was measured:
[1] = target: D(2) dopamine receptor (Rattus norvegicus) (UniProt P61169); assay: Binding affinity at Dopamine D2 receptors in rat striatum by [3H]spiperone displacement.
[2] = Binding affinity at Dopamine D3 receptors in rat striatum by [3H]-spiperone displacement.
[3] = Stimulation of mitogenesis in Dopamine receptor D3 transfected CHO p-5 cells

Chain of D(2) dopamine receptor (Rattus norvegicus) (P61169 whole entry, looked up): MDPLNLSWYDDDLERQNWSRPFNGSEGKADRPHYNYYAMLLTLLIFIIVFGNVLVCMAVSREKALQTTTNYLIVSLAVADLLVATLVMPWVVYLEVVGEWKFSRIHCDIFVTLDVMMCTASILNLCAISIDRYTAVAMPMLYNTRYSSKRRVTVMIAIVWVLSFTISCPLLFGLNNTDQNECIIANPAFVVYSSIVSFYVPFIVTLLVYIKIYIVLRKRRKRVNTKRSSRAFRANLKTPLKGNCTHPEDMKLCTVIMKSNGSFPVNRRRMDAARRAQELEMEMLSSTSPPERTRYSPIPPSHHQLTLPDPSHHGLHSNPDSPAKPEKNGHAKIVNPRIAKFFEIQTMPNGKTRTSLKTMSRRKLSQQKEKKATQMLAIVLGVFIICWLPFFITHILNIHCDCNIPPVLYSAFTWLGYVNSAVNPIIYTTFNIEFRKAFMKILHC

SMILES	Ki [1] [nM]	Ki [2] [nM]	EC50 [3] [nM]
CCOc1c(C(=O)NCCN2CCN(c3ccccc3)CC2)cc(Br)c2ccccc12 [4-Bromo-1-ethoxy-naphthalene-2-carboxylic acid [2-(4-phenyl-piperazin-1-yl)-ethyl]-amide]	> 10000	267	–
COc1c(C(=O)NCCN2CCN(c3cccc(C)c3C)CC2)cc(Br)c2ccccc12 [4-Bromo-1-methoxy-naphthalene-2-carboxylic acid {2-[4-(2,3-dimethyl-phenyl)-piperazin-1-yl]-ethyl}-amide]	1170	–	–
COc1c(C(=O)NCCN2CCN(c3ccccc3Cl)CC2)cc(Br)c2ccccc12 [4-Bromo-1-methoxy-naphthalene-2-carboxylic acid {2-[4-(2-chloro-phenyl)-piperazin-1-yl]-ethyl}-amide]	517	39	83
COc1c(C(=O)NCCN2CCN(c3ccccc3[N+](=O)[O-])CC2)cc(Br)c2ccccc12 [4-Bromo-1-methoxy-naphthalene-2-carboxylic acid {2-[4-(2-nitro-phenyl)-piperazin-1-yl]-ethyl}-amide]	151	24	–
COc1c(C(=O)NCCN2CCN(c3cccc(Cl)c3)CC2)cc(Br)c2ccccc12 [4-Bromo-1-methoxy-naphthalene-2-carboxylic acid {2-[4-(3-chloro-phenyl)-piperazin-1-yl]-ethyl}-amide]	703	–	28
COc1cccc(N2CCN(CCNC(=O)c3cc(Br)c4ccccc4c3OC)CC2)c1 [4-Bromo-1-methoxy-naphthalene-2-carboxylic acid {2-[4-(3-methoxy-phenyl)-piperazin-1-yl]-ethyl}-amide]	1290	652	–
COc1c(C(=O)NCCN2CCN(c3ccc(Cl)cc3)CC2)cc(Br)c2ccccc12 [4-Bromo-1-methoxy-naphthalene-2-carboxylic acid {2-[4-(4-chloro-phenyl)-piperazin-1-yl]-ethyl}-amide]	–	132	–
COc1ccc(N2CCN(CCNC(=O)c3cc(Br)c4ccccc4c3OC)CC2)cc1 [4-Bromo-1-methoxy-naphthalene-2-carboxylic acid {2-[4-(4-methoxy-phenyl)-piperazin-1-yl]-ethyl}-amide]	5690	731	–
COc1c(C(=O)NCCN2CCN(c3ccccc3)CC2)cc(Cl)c2ccccc12 [4-Chloro-1-methoxy-naphthalene-2-carboxylic acid [2-(4-phenyl-piperazin-1-yl)-ethyl]-amide]	2530	55	–
COc1c(C(=O)NCCN2CCN(c3ccccc3)CC2)cc(C#N)c2ccccc12 [4-Cyano-1-methoxy-naphthalene-2-carboxylic acid [2-(4-phenyl-piperazin-1-yl)-ethyl]-amide]	71	131	–

Next, values leading:

Ki [1] [nM]	Ki [2] [nM]	EC50 [3] [nM]	SMILES
7000	270	–	COc1c(C(=O)NCCN2CCN(c3ccccc3)CC2)ccc2ccccc12 [1-Methoxy-naphthalene-2-carboxylic acid [2-(4-phenyl-piperazin-1-yl)-ethyl]-amide]
> 10000	> 10000	–	O=C(NCCN1CCN(c2ccccc2)CC1)c1cc(Br)c2ccccc2c1O [4-Bromo-1-hydroxy-naphthalene-2-carboxylic acid [2-(4-phenyl-piperazin-1-yl)-ethyl]-amide]
1210	339	–	COc1c(C(=O)NCCN2CCN(c3cccc(C)c3)CC2)cc(Br)c2ccccc12 [4-Bromo-1-methoxy-naphthalene-2-carboxylic acid [2-(4-m-tolyl-piperazin-1-yl)-ethyl]-amide]
484	66	> 1000	COc1c(C(=O)NCCN2CCN(c3ccccc3C)CC2)cc(Br)c2ccccc12 [4-Bromo-1-methoxy-naphthalene-2-carboxylic acid [2-(4-o-tolyl-piperazin-1-yl)-ethyl]-amide]
996	260	–	COc1c(C(=O)NCCN2CCN(c3ccc(C)cc3)CC2)cc(Br)c2ccccc12 [4-Bromo-1-methoxy-naphthalene-2-carboxylic acid [2-(4-p-tolyl-piperazin-1-yl)-ethyl]-amide]
1890	24	–	COc1c(C(=O)NCCN2CCN(c3ccccc3)CC2)cc(Br)c2ccccc12 [4-Bromo-1-methoxy-naphthalene-2-carboxylic acid [2-(4-phenyl-piperazin-1-yl)-ethyl]-amide]
303	76	–	COc1ccccc1N1CCN(CCNC(=O)c2cc(Br)c3ccccc3c2OC)CC1 [4-Bromo-1-methoxy-naphthalene-2-carboxylic acid {2-[4-(2-methoxy-phenyl)-piperazin-1-yl]-ethyl}-amide]
1290	652	–	COc1c(C(=O)NCCN2CCN(c3cccc([N+](=O)[O-])c3)CC2)cc(Br)c2ccccc12 [4-Bromo-1-methoxy-naphthalene-2-carboxylic acid {2-[4-(3-nitro-phenyl)-piperazin-1-yl]-ethyl}-amide]
5690	731	–	COc1c(C(=O)NCCN2CCN(c3ccc([N+](=O)[O-])cc3)CC2)cc(Br)c2ccccc12 [4-Bromo-1-methoxy-naphthalene-2-carboxylic acid {2-[4-(4-nitro-phenyl)-piperazin-1-yl]-ethyl}-amide]
> 10000	> 10000	–	O=C(NCCN1CCN(c2ccccc2)CC1)c1cc(Br)c2ccccc2c1 [4-Bromo-naphthalene-2-carboxylic acid [2-(4-phenyl-piperazin-1-yl)-ethyl]-amide]
